From ChEMBL document CHEMBL1136575, “Pyridazinones as selective cyclooxygenase-2 inhibitors” (Bioorg Med Chem Lett, 2003)

Legend:
[1] = molecular target: T1, Prostaglandin G/H synthase 2 (Homo sapiens, UniProt P35354); assay: In vitro inhibitory activity against prostaglandin G/H synthase 2 stably transfected in Human whole blood (HWB) cell; format: tissue-based
T1 sequence (P35354 whole entry): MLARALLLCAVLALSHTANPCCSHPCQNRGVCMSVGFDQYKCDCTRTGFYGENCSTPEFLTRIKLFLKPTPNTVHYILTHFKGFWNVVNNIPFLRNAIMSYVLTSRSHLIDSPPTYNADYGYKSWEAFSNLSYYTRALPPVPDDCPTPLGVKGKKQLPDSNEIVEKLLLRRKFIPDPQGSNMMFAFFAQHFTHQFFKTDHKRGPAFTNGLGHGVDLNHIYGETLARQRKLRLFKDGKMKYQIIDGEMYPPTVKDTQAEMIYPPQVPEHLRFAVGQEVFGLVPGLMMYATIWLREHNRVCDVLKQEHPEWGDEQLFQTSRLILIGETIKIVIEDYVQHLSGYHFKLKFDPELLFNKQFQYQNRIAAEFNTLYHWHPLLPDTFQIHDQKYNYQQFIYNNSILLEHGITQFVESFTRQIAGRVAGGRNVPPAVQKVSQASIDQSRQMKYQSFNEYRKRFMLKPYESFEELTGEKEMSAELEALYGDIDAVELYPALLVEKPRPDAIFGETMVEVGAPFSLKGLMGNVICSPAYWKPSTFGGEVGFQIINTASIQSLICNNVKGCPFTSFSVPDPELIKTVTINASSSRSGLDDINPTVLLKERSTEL

[2] = molecular target: T1, Prostaglandin G/H synthase 2; assay: In vitro inhibitory activity against prostaglandin G/H synthase 2 stably transfected in Chinese hamster ovary (CHO) cells; format: cell-based
[3] = molecular target: Prostaglandin G/H synthase 1 (Homo sapiens, UniProt P23219); assay: In vitro inhibitory activity against sensitive U-937 microsomal prostaglandin G/H synthase 1
Sequence of Prostaglandin G/H synthase 1 (P23219 whole entry): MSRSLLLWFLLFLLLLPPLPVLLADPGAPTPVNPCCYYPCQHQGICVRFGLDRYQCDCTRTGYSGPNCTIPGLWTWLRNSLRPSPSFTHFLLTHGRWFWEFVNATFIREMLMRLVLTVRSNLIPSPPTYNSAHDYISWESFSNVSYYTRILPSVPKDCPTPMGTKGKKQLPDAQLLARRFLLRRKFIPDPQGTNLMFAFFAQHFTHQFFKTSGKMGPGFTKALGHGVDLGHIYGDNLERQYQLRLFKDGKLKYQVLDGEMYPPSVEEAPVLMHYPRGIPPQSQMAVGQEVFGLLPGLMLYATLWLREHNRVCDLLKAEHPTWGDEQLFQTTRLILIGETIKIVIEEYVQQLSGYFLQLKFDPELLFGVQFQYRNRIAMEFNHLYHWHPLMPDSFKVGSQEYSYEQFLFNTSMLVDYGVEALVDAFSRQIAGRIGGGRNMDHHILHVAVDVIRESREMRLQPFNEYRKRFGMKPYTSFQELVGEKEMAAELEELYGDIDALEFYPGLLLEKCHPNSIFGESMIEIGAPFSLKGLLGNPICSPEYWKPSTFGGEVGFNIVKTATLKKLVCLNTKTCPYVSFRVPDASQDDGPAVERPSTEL

[4] = Cmax value was determined after peroral administration of 20 mg/kg in rat; format: ADME, organism-based; design: dose 20 mg/kg, route oral; conditions: in vivo, po
[5] = test system: Rattus norvegicus; assay: Effective dose of the Compound was determined in vivo by using rat paw edema assay; format: functional
[6] = test system: Rattus norvegicus; assay: Percent inhibition was determined in vivo by using rat paw edema assay at 10 mg/kg; format: functional
[7] = test system: Rattus norvegicus; assay: Effective dose of the Compound was determined in vivo by using rat pyresis assay; format: functional

Structure (SMILES) | IC50 [1] [nM] | IC50 [2] [nM] | IC50 [3] [nM] | Cmax [4] [µM] | ED50 [5] [mg/kg] | inhibition in vivo at 10 mg/kg [6] [%] | ED50 [7] [mg/kg]
CC1(Cn2ncc(-c3ccc(S(C)(=O)=O)cc3)c(-c3ccc(F)cc3)c2=O)CC1 | 700 | 200 | 3000 |  |  |  | 
CS(=O)(=O)c1ccc(-c2cnn(Cc3cccnc3)c(=O)c2-c2ccccc2)cc1 | 7100 | 1300 | 10000 |  |  |  | 
Cn1ncc(-c2ccc(S(C)(=O)=O)cc2)c(-c2ccccc2)c1=O |  | 300 |  |  |  |  | 
CS(=O)(=O)c1ccc(-c2cnn(Cc3ccccc3)c(=O)c2Sc2ccccc2)cc1 | 5900 | 370 | 10000 |  |  |  | 
Cc1ccc(-c2c(-c3ccc(S(C)(=O)=O)cc3)cnn(Cc3ccccc3)c2=O)cn1 |  |  | > 10000 | 4.2 | > 10 |  | 
CS(=O)(=O)c1ccc(-c2cnnc(O)c2-c2ccccc2)cc1 | > 33000 | > 5000 | > 10000 |  |  |  | 
CS(=O)(=O)c1ccc(-c2cnn(CCC3CC3)c(=O)c2-c2ccc(F)cc2)cc1 | 2900 | 200 | > 10000 |  |  |  | 
CS(=O)(=O)c1ccc(-c2cnn(Cc3ccccc3)c(=O)c2OCC2CC2)cc1 | 360 | 3 | 10000 | 0.8 | > 10 |  | 
CS(=O)(=O)c1ccc(-c2cnn(Cc3ccccc3)c(=O)c2-c2ccccc2)cc1 |  |  | 10000 | 1 |  |  | 
CC(C)(C)n1ncc(-c2ccc(S(C)(=O)=O)cc2)c(-c2ccccc2)c1=O | > 33000 | > 5000 | > 10000 |  |  |  | 
C[C@@H]1C[C@H]1Cn1ncc(-c2ccc(S(C)(=O)=O)cc2)c(-c2ccc(F)cc2)c1=O | 1700 | 60 | 10000 | 4.8 |  | 40 | 
CS(=O)(=O)c1ccc(-c2cnn(CC3CC3)c(=O)c2-c2ccc(F)cc2)cc1 |  |  | > 10000 | 8.5 | 10 |  | 
Cc1ccc(-c2c(-c3ccc(S(C)(=O)=O)cc3)cnn(Cc3ccccc3)c2=O)cc1 |  | 20 | > 10000 | 2.7 | 2.2 |  | > 10
CS(=O)(=O)c1ccc(-c2cnn(Cc3nccs3)c(=O)c2-c2ccc(F)cc2)cc1 | 5900 | 600 | 10000 |  |  |  | 
CS(=O)(=O)c1ccc(-c2cnn(Cc3ccccc3)c(=O)c2Oc2ccc(F)cc2)cc1 |  |  | 1000 |  | > 10 |  | 
CS(=O)(=O)c1ccc(-c2cnn(CC3CCCCC3)c(=O)c2-c2ccc(F)cc2)cc1 |  |  | 1000 |  |  |  | 
CC(C)=CCn1ncc(-c2ccc(S(C)(=O)=O)cc2)c(-c2ccc(F)cc2)c1=O |  |  | 3000 |  |  |  | 
C[C@H]1C[C@@H]1Cn1ncc(-c2ccc(S(C)(=O)=O)cc2)c(-c2ccc(F)cc2)c1=O | 300 | 60 | 3000 | 16 | 0.7 |  | 1.1
CS(=O)(=O)c1ccc(-c2cnn(C3CC3)c(=O)c2-c2ccc(F)cc2)cc1 |  |  | 10000 |  |  |  | 
CS(=O)(=O)c1ccc(-c2cnn(Cc3ccccc3)c(=O)c2Oc2ccc(Cl)cn2)cc1 |  |  | 10000 |  |  |  | 
CS(=O)(=O)c1ccc(-c2cnn(Cc3cccs3)c(=O)c2-c2ccc(F)cc2)cc1 |  |  | 1000 |  |  |  | 
CS(=O)(=O)c1ccc(-c2cnn(-c3ccccc3)c(=O)c2-c2ccccc2)cc1 |  |  | > 10000 |  |  |  | 
CC(C)Oc1c(-c2ccc(S(C)(=O)=O)cc2)cnn(Cc2ccccc2)c1=O |  |  | > 10000 | 2.8 | < 0.3 |  | < 0.3
CC1(C)CC1Cn1ncc(-c2ccc(S(C)(=O)=O)cc2)c(-c2ccc(F)cc2)c1=O (racemic) | 700 | 30 | 3000 |  |  |  | 
CC(C1CC1)n1ncc(-c2ccc(S(C)(=O)=O)cc2)c(-c2ccc(F)cc2)c1=O (racemic) | 700 | 200 | 10000 | 13 | 1.8 |  | > 10
C[C@H]1C[C@H]1Cn1ncc(-c2ccc(S(C)(=O)=O)cc2)c(-c2ccc(F)cc2)c1=O (racemic) | 2400 | 50 | 10000 |  |  |  | 
C[C@H]1C(Cn2ncc(-c3ccc(S(C)(=O)=O)cc3)c(-c3ccc(F)cc3)c2=O)[C@@H]1C (mixture of isomers) | 700 | 50 | 3000 |  |  |  | 
